{"source": "patent US20240091215A1", "about": "“TASQUINIMOD OR A PHARMACEUTICALLY ACCEPTABLE SALT THEREOF FOR USE IN THE TREATMENT OF MYELODYSPLASTIC SYNDROME” (ACTIVE BIOTECH AB, priority 2021, published 2024)", "key": {"[1]": {"tested_on": "IRAK1, NF-κB-p65 and gasdermin in MDS MSCs", "assay": "Western blot of IRAK1, NF-κB-p65 and gasdermin in MDS MSCs treated with S100A9 with or without tasquinimod", "format": "cell-based, human", "conditions": "S100A9 1.5 μg/ml, tasquinimod 10 μM, 48 h", "description": "GAPDH (38 kDa) served as reference protein. Lane 1=untreated control; lane 2=treated with S100A9; lane 3=treated with S100A9/tasquinimod.\n(§1) BM mononuclear cells were isolated by percoll gradient centrifugation and MSCs were grown as adherent monolayer in DMEM/10% FCS. Passages 2-5 were used for the experiments.\n(§2) To mimic inflammatory conditions, in-vitro cultured MSCs were treated with recombinant S100A8, S100A9 or the S100A8/9 heterodimer (each 1.5 μg/ml) or TNF-α (10 ng/ml) in the presence or absence of tasquinimod (10 μM) for different time periods depending on the subsequent experiments. Hematopoietic stem and progenitor cells (HSPCs) for cocultures were isolated using CD34 antibody-conjugated magnetic beads, according to the manufacturer's instructions (Miltenyi Biotec) and were added in CellGro medium (CellGenix) containing stem cell factor (SCF), FLT3-L and IL-3 (10 ng/ml each).\n(§3) Whole cell lysates were prepared using RIPA lysis buffer containing proteinase inhibitors. Protein concentrations were determined using the BCA Protein Assay Kit. Equal protein amounts were separated by SDS-polyacrylamide gel electrophoresis and transferred to polyvinylidene fluoride membranes for detection of specific proteins using primary antibodies for IRAK1, NF-κB-p65, gasdermin and OXPHOS overnight at 4° C., following secondary antibodies HRP-conjugated goat anti-mouse IgG (Invitrogen) or donkey anti-rabbit IgG (GE Healthcare), respectively. The blots were incubated with ECL Plus Western Blotting reagent (Amersham) and the signals captured using a LAS3000 imaging system."}, "[2]": {"tested_on": "IL-1β, IL-18, Casp1 and PD-L1 mRNA in MDS MSCs", "assay": "RT-PCR mRNA expression of IL-1β, IL-18, caspase 1 and PD-L1 in MDS MSCs treated with S100A9 with or without tasquinimod", "format": "cell-based, human", "conditions": "48 h", "description": "FIG. 3 is a bar chart representing the mRNA expression levels of IL-1β, IL-18, Casp1 and PD-L1 by real-time PCR of MDS MSCs after 48 h treatment with tasquinimod only (TASQ), with S100A9 only (S100A9), or with both S100A9 and tasquinimod (S100A9+TASQ). Amplicons for IL-1β, IL-18, Casp1 and PD-L1 were normalized to endogenous GAPDH expression and the untreated MSCs were set to 1 (=control).\nas §1, §2\n(§4) RNA was isolated from MSC using RNeasy Mini Kit (Qiagen) and reverse transcribed into cDNA using RevertAid™ cDNA synthesis kit (Thermo Fisher) with oligo-dT primers. Relative target quantity was determined using the comparative CT (ΔΔCT) method. RT-PCR was performed using SYBR Green/ROX PCR master mix (Thermo) and target specific primers for caspasel, IL1β, IL18, PD-L1, PD-1 and GAPDH as housekeeping gene on a Taqman™ Fast 3500 cycler (Applied Biosystems). Amplicons were normalized to endogenous GAPDH control."}, "[3]": {"tested_on": "PD-L1 in healthy and CMML MSCs", "assay": "Western blot of PD-L1 in healthy and CMML MSCs", "format": "cell-based, human", "conditions": "48 h; for PD-L1 expression in the absence of S100A9: tasquinimod alone", "description": "Lane 1=untreated control; lane 2=treated with tasquinimod; lane 3=treated with S100A9; […] tasquinimod.\nas §1, §2, §3"}, "αSMA and NF-κB in MSCs": {"tested_on": "αSMA and NF-κB in MSCs", "assay": "Immunofluorescence staining and confocal microscopy of S100A9/tasquinimod treated MSCs", "format": "cell-based, human", "description": "as §2\nS100A9/tasquninimod treated MSCs were fixed with 4% paraformaldehyde. Cells were permeabilized using PBS containing 0.1% Triton™ X-100 (T-PBS), blocked with T-PBS containing 10% FCS and 1% HSA (IF-Buffer) and incubated over night at 4° C. with antibodies against αSMA, NFκB or PD-L1. Secondary antibodies polyclonal sheep-anti-rabbit-Cy3 or polyclonal goat-anti-mouse-Cy2 were incubated for 1 h at room temperature. Cell nuclei were counterstained with DAPI. Imaging analysis was performed by confocal microscopy (LSM800, Carl Zeiss) and ZEN software."}, "MDS MSCs": {"tested_on": "MDS MSCs", "assay": "MSC differentiation assays (adipogenic, osteogenic)", "format": "cell-based, human", "description": "Adipogenic and osteogenic differentiation capacity is an important functional feature of MSCs and often altered in MDS leading to changes in the bone metabolism. Therefore, the effect of tasquinimod on adipogenic and osteogenic differentiation was assayed as follows.\nMSCs were seeded in 6-well plates (5×10^3 MSCs/cm^2), cultured to subconfluency for approximately 4 days in DMEM, and subjected to adipogenic (0.5 mM […], 1 μM dexamethasone, 100 μM indomethacin, 10 μM insulin) or osteogenic (0.1 μM dexamethasone, 0.2 mM ascorbate-2-phosphate, 10 mM β-glycerophosphate) differentiation. […] Differentiation was graded according to microscopic analysis as follows: 0=no differentiation; 1=25% of the culture wells contain differentiated cells; 2=50% of the culture wells contain differentiated cells; 3=75% of the culture wells contain differentiated cells; 4=100% of the culture wells contain differentiated cells. Osteogenesis was determined by van Kossa staining, and the catalytic activity of ALP was determined."}, "[4]": {"tested_on": "IRAK1, NF-κB-p65 and gasdermin in MDS MSCs", "assay": "Western blot of IRAK1, NF-κB-p65 and gasdermin in MDS MSCs treated with TNF-α with or without tasquinimod", "format": "cell-based, human", "conditions": "MSC cultures, TNF-α 10 ng/ml, tasquinimod 10 μM, 48 h", "description": "GAPDH (38 kDa) served as reference protein. Lane 1=treated with TNF-α; lane 2=treated with TNF-α and tasquinimod.\nas §2, §3"}, "[5]": {"tested_on": "MDS MSC co-cultured with hematopoietic progenitor cells", "assay": "CAF-C assay, MSC/HSPC co-culture with pre-treated stromal layers", "format": "cell-based, human", "conditions": "stromal layers pre-treated with S100A9 and tasquinimod, one to four weeks", "description": "FIG. 6a is a bar chart showing quantification of CAF-C when co-culturing MDS MSC with hematopoietic progenitor cells, after one, two, three and four weeks without the presence of either S100A9 or tasquinimod (“without”), in the presence of tasquinimod (TASQ), in the presence of S100A9 (S100A9), and in the presence of both s100A9 and tasquinimod (S100A9+TASQ).\nas §2\nCAF-C assays were performed over four weeks using pre-treated healthy or MDS MSC layers. One thousand magnetically isolated CD34+ cells were added in StemMACS™ HSC-CFU complete medium (Miltenyi Biotec)."}, "[6]": {"tested_on": "MDS MSC co-cultured with hematopoietic progenitor cells", "assay": "CFU assay with cells harvested after one week of MSC/HSPC co-culture", "format": "cell-based, human", "conditions": "colonies counted after 2 weeks", "from_the_text": "FIG. 6b is a bar chart showing the number of colonies/300 cells in CFU assays performed using MDS MSC cells cocultured with hematopoietic progenitor cells, harvested after one week of co-culture in the presence of S100A9 or in the presence of both S100A9 and tasquinimod or in the absence of both S100A9 and tasquinimod (“control”), with 300 cells being plated in enriched methylcellulose medium with recombinant cytokines (MethoCult™ H4435, STEMCELL Technologies). Colonies were counted after 2 weeks and classified under a microscope or with the STEMvision™ system (STEMCELL Technologies). FIG. 6c is a bar chart showing the number of colonies/300 cells in CFU assays performed using MDS MSC cells and hematopoietic progenitor cells, harvested after one week of co-culture in the presence (“TASQ”) or absence (“without”) of tasquinimod, with 300 cells being plated in enriched methylcellulose medium with recombinant cytokines (MethoCult™ H4435, STEMCELL Technologies). Colonies were counted after 2 weeks and classified under a microscope or with the STEMvision™ system (STEMCELL Technologies). […] Colonies were counted after 2 weeks and classified under a microscope or with the STEMvision™ system (STEMCELL Technologies)."}, "PD-1": {"tested_on": "PD-1", "assay": "PD-1 expression (RT-PCR) in MSC/HSPC co-cultures", "format": "cell-based, human", "conditions": "summary statement; PD-1 measured in co-cultured HSPCs", "description": "as §2\nas §4, with “RNA was isolated from MSC using RNeasy Mini Kit (Qiagen) and reverse transcribed into cDNA using RevertAid™ cDNA synthesis kit (Thermo Fisher) with oligo-dT primers.” left out"}, "MSCs [7]": {"tested_on": "MSCs", "assay": "CellROX Deep Red Flow Cytometry Assay of ROS levels", "format": "cell-based, human", "description": "The inflammatory micromilieu of the myelodysplastic bone marrow leads to increased ROS levels which may cause aberrant cellular function. Therefore, the effect of tasquinimod on ROS levels in MSCs is assayed using the CellROX™ Deep Red Flow Cytometry Assay kit (Thermo Fisher) according to the manufacturer's instructions."}, "MSCs [8]": {"tested_on": "MSCs", "assay": "Seahorse Metabolic Extracellular Flux Profiling (Cell Mito Stress Test)", "format": "cell-based, human", "description": "The impact of tasquinimod on cellular metabolism is investigated by using the Seahorse system (Agilent Technologies). MSCs are seeded in Seahorse 96-well plates. Cell Mito Stress Test (XF Cell Mito Stress Test Kit, Agilent Technologies) is performed following the standard protocol. Oxygen consumption rate (OCR) and Extracellular Acidification Rate (ECAR) are detected after injection of oligomycin ([…]), carbonyl cyanide-p-trifluoromethoxyphenylhydrazone (FCCP, […]), and the combination of rotenone and antimycin (Rot/AA, […]). OCR is measured with an XF96 analyzer and the Wave software (version 2.2.0)."}, "[9]": {"tested_on": "genetically modified mice (e.g. B6; 129-Trp53bp^tm1Jc/J and NUP98/HOXD13)", "assay": "In vivo validation in genetically modified mice developing signs of MDS", "conditions": "MDS mouse models, blood counts weekly, bone marrow after 20 weeks", "description": "The promising in vitro results are validated in vivo in different mouse models. In these models, genetically modified mice (e.g. B6; 129-Trp53bp^tm1Jc/J and NUP98/HOXD13) which develop typical signs of MDS such as anemia and cytopenia are treated with tasquinimod. Peripheral blood counts are recorded weekly and finally the bone marrow is analysed after 20 weeks."}, "PD-L1": {"tested_on": "PD-L1", "conditions": "Oncoimmunology 2016, Vol. 5, No. 6, e1145333; cited from earlier work"}, "[10]": {"conditions": "MDS MSCs, S100A9-induced increase, tasquinimod 10 μM"}, "[11]": {"conditions": "MSCs, induced by S100A9, tasquinimod 10 μM"}}, "data": [{"compound": "COc1cccc2c1c(O)c(C(=O)N(C)c1ccc(C(F)(F)F)cc1)c(=O)n2C", "note": "[tasquinimod, 4-hydroxy-5-methoxy-N,1-dimethyl-2-oxo-N-[4-(trifluoromethyl)phenyl]-1,2-dihydroquinoline-3-carboxamide]", "values": [{"measurement": "expression of IRAK1 (Western blot)", "setting": "[1]", "value": "inhibited the expression"}, {"measurement": "expression of NF-κB-p65 (Western blot)", "setting": "[1]", "value": "inhibited the expression"}, {"measurement": "expression of gasdermin (Western blot)", "setting": "[1]", "value": "inhibited the expression"}, {"measurement": "mRNA expression of IL-1β", "setting": "[2]; [10]", "value": "this increase was inhibited"}, {"measurement": "mRNA expression of IL-18", "setting": "[2]; [10]", "value": "this increase was inhibited"}, {"measurement": "mRNA expression of caspase 1", "setting": "[2]; [10]", "value": "this increase was inhibited"}, {"measurement": "PD-L1 expression at the mRNA level", "setting": "[2]; [11]", "value": "suppressed"}, {"measurement": "PD-L1 expression in the absence of S100A9", "setting": "[3]; MSC from CMML MDS patients", "value": "downregulation of PD-L1"}, {"measurement": "PD-L1 expression in the absence of S100A9", "setting": "[3]; MSC from healthy volunteers", "value": "downregulation of PD-L1"}, {"measurement": "PD-L1 expression at the protein level", "setting": "[3]; [11]", "value": "suppressed"}, {"measurement": "NF-kB (nuclear) expression in MSCs", "setting": "αSMA and NF-κB in MSCs", "value": "reduces"}, {"measurement": "αSMA expression in MSCs", "setting": "αSMA and NF-κB in MSCs", "value": "reduces"}, {"measurement": "decrease in number of adipocytes (Oil red O positive cells)", "setting": "MDS MSCs; MDS MSCs, after 14 days of cultivation in differentiation medium", "value": "25-50%"}, {"measurement": "adipogenic differentiation", "setting": "MDS MSCs; MSC differentiation assay", "value": "reducing"}, {"measurement": "osteogenic differentiation", "setting": "MDS MSCs; MSC differentiation assay", "value": "improving"}, {"measurement": "expression of IRAK1 (Western blot)", "setting": "[4]", "value": "inhibited the expression"}, {"measurement": "expression of NF-κB-p65 (Western blot)", "setting": "[4]", "value": "inhibited the expression"}, {"measurement": "expression of gasdermin (Western blot)", "setting": "[4]", "value": "inhibited the expression"}, {"measurement": "number of CAF-Cs", "setting": "[5]", "value": "increased"}, {"measurement": "number of CFUs", "setting": "[6]", "value": "increased"}, {"measurement": "PD-1 expression", "setting": "PD-1", "value": "inhibition"}, {"measurement": "ROS levels in MSCs", "setting": "MSCs [7]", "value": "block elevated ROS levels"}, {"measurement": "Spare Respiratory Capacity", "setting": "MSCs [8]", "value": "improved"}, {"measurement": "cellular stress", "setting": "MSCs [8]", "value": "reduced cellular stress"}, {"measurement": "restoration of functional hematopoiesis", "setting": "[9]", "value": "partly restore functional hematopoiesis"}, {"measurement": "expression of PD-L1, previously reported", "setting": "PD-L1", "value": "upregulate expression of PD-L1"}]}]}
